Measured values as given in patent US20230172874A1, “USE OF CANNABIDIOL FOR THE TREATMENT OF INSOMNIA ASSOCIATED TO PAIN” (priority 2021, published 2023).
Entries after “also recorded” stand apart in the source; their conditions may differ.

Assays:
neuropathic rats = assay: EEG power spectra (delta, theta, sigma bands) during NREM and REM sleep; assay type: in vivo, male Wistar rats
Procedure: EEG and EMG recording. Six days after surgery (16 days post-SNI), mechanical allodynia was assessed via von Frey test, and EEG/EMG was recorded for a period of 6 h (from 6 AM to 12 PM). The treatments (described below) were performed at 6:00 A.M., right after the recording had started. […] Consecutive 10 s epochs were subjected to a fast Fourier transform (FFT), and EEG power spectra density was computed in the frequency range of 0-64 Hz^13.
To determine the variations in power spectra induced by the pharmacological treatment of CBD and antagonists, the power densities were summed up over the frequency band of 0-25 Hz (total power). The data were then standardized by expressing all power spectral densities at the different 0.5 Hz bin frequency ranges (delta, theta, and sigma) as a percentage relative to the total power of the same epoch^16. Frequency ranges were 0-3.5Hz for delta, 4-8.5Hz for theta, and 11-14 Hz for sigma bands. The sum of power densities over a frequency band following treatments were expressed as the percentage difference from that in or naïve+veh or NP+vehicle group in statistical analysis. In the experiments with WAY 100635 the NP+CBD was compared with NP+vehicle, NP+WAY, NP+WAY+CBD.
To assess whether CBD (20 mg/kg) might affect the microarchitecture during the sleep, the intensity Delta (0.5-4 Hz), Theta ([…]) and Sigma (10-15 Hz) waves were measured during 6 hours of light phase in the 3 groups of rats (Naïve, SNI+VEH and SNI+CBD 20mg/kg). Data were converted as a percentage of variation vs. naive animals and One-way ANOVA was performed on the power of delta, theta and sigma waves during NREM and REN sleep.
To assess whether the 5-HT1A selective antagonist WAY 100635 (2 mg/kg) might reverse the effect of CBD (20 mg/kg) in the enhancement of power density (Delta, Theta, and Sigma waves) during sleep, the power spectra were measured for 6 hours in four groups of rats. The first group were NP rats treated with CBD vehicle (n=8), the second group were NP rats treated with WAY 100635 alone at 2 mg/kg (n=6), the third group were NP rats treated with WAY 100635 (2 mg/kg)+CBD (20 mg/kg; n=6), and the fourth group were NP treated with CBD at 20 mg/kg (n=8). Data were converted as a percentage of variation vs NP animals treated with vehicle.

rats with SNI = assay: Mechanical allodynia (von Frey test) after spared nerve injury; assay type: in vivo, male Wistar rats
Procedure: Animals. The experiments were performed on male Wistar rats weighing 250 g (six weeks). All animals were housed in standardized animal facilities under a 12 h light/dark cycle (lights on at 7 AM) with ad libitum access to food and water. All surgeries and experimental procedures were performed during the light cycle. Experimental protocols were approved by the Animal Ethics Committee of the local institutional committee for animal use and care (McGill University, Qc, Canada). These protocols follow ethical guidelines for investigation of experimental pain in conscious animals of the IASP, the Canadian Institute of Health Research guidelines for animal care and scientific use.
Spared nerve injury (SNI). SNI was performed according to the method of Decosterd and Woolf^35. Rats were deeply anaesthetized with isofluorane (5%), anaesthesia was confirmed by the absence of a nociceptive reflex reaction to a paw pinch. The sciatic nerve was exposed at mid-thigh level distal to the trifurcation and freed of connective tissue; the three peripheral branches (sural, common peroneal, and tibial nerves) of the sciatic nerve were exposed without stretching nerve structures. Both tibial and common peroneal nerves were ligated and transected together. Carprofen (5 mg/kg) was administrated subcutaneously pre-surgery as well as three days every 24 hours post-surgery as analgesic. After SNI, each rat was housed in its home cage for 15 days until the neuropathy is developed.
Mechanical allodynia. On day 15 after SNI, mechanical allodynia was assessed via von Frey test^38. Rats were placed in a test chamber, and they were allowed to acclimate for 60 minutes. Tactile allodynia was determined by measuring paw withdrawal thresholds in response to mid-plantar hind paw stimuli with Calibrated von Frey filaments^36. These filaments are of a logarithmically incremental stiffness corresponding to an applied force ranging from 0.4 to 15 g. Every filament was applied during 10 seconds in the hind paw to measure the withdrawal threshold. The 2.0 g force filament was applied first; in the presence of a response, the next smaller filament was applied. In the absence of a response, the next higher filament was applied. After the first change in response, the test continued until six responses were collected. The paw withdrawal threshold was then converted to the cutaneous nociceptive threshold by using the “up-down” method^39. The stimulus intensity (filament stiffness) required to produce a response in 50% of the applications for each animal was defined as 50% withdrawal threshold (expressed in g). The 50% withdrawal threshold was determined according to the following equation: 50% Threshold (g)=(10^ [Xf+kδ])/10,000. Where Xf is the value of the last von Frey filament used (in logarithmic units), k is the correction factor based on the response patterns of a calibration table and the tabulated value based on the pattern of positive and negative responses, and δ indicates the average differences between stimuli in logarithmic units^38,39. In non-lesioned animals (naïve) a value 11.98-15 g was considered normal, while the presence of allodynia was considered when the 50% withdrawal threshold of the limb is less than 4 g. All nerve-ligated rats were verified to be allodynic before the experiments. Rats without allodynia were excluded.

naïve animals = conditions: cited from earlier work
rats = conditions: cited from earlier work
healthy rats = conditions: intracerebroventricular injection 10 μg/5 μL; cited from earlier work
[1] = naïve animals, acute systemic 20 mg/kg

SMILES: C=C(C)[C@@H]1CCC(C)=C[C@H]1c1c(O)cc(CCCCC)cc1O [CBD, 2-[(1R,6R)-3-methyl-6-prop-1-en-2-ylcyclohex-2-en-1-yl]-5-pentylbenzene-1,3-diol]
- power of Sigma waves during REM sleep, relative to NP rats treated with vehicle (neuropathic rats; 6 h, CBD 20 mg/kg): no statistically significant differences between groups; also recorded: no differences were found
- power of Theta waves during REM sleep, relative to NP animals treated with vehicle (neuropathic rats; 6 h, CBD 20 mg/kg): no statistically significant differences between groups
- power of theta waves during NREM sleep, relative to NP animals treated with vehicle (neuropathic rats; 6 h, CBD 20 mg/kg i.p.): increases the intensity of the Theta waves; also recorded: increase in the theta power
- Sigma waves during NREM sleep, relative to NP rats treated with vehicle (neuropathic rats; 6 h, CBD 20 mg/kg, WAY 100635 2 mg/kg): no significant main effects; also recorded: did not detect differences
- power of Delta waves during NREM sleep, relative to NP rats treated with vehicle (neuropathic rats; 6 h light phase, CBD 20 mg/kg i.p.): increase in the intensity of the power of Delta waves
- power of Delta waves during REM sleep, between groups (ANOVA) (neuropathic rats; NP rats, 6 h, CBD 20 mg/kg, WAY 100635 2 mg/kg): no statistically significant differences between groups
- AUC of the antiallodynic effect (rats with SNI; 10 mg/kg vs 20 mg/kg): not statistically different
- AUC of the antiallodynic effect (rats with SNI; 20 mg/kg group vs CBD 5 mg/kg (p<0.001) and vs vehicle (p<0.001)): significantly higher
- antiallodynic effect (rats with SNI; SNI rats, 5 mg/kg i.p.): did not show any antiallodynic effect
- reversal of mechanical allodynia (rats with SNI; SNI rats, 10 mg/kg i.p., between 2 h and 4.5 h (p<0.05)): able to reverse mechanical allodynia
- reversal of mechanical allodynia (rats with SNI; SNI rats, 20 mg/kg i.p., between 1 h and 5 h (p<0.05)): able to reverse mechanical allodynia
- paw withdrawal threshold / mechanical allodynia, dose dependence (rats with SNI; SNI rats, CBD 5, 10 and 20 mg/kg intraperitoneally, 0.5-7.5 hours, vs vehicle): increasing the paw withdrawal threshold in a dose-dependent manner; also recorded: reduces mechanical allodynia in a dose-dependent manner; also recorded: reduces neuropathic pain
- duration of antiallodynic effects post-administration (rats with SNI; SNI rats, CBD i.p.): up to 4 hours
- sleep duration and sleep parameters (naïve animals; [1]): no significant effect
- slow-wave sleep (SWS) latency (naïve animals; [1]): reduced slow-wave sleep (SWS) latency
- REM sleep (naïve animals; single doses of 40 mg/kg): without affecting REM sleep
- SWS (naïve animals; single doses of 40 mg/kg): increased SWS
- SWS latency (naïve animals; single doses of 40 mg/kg): decreased SWS latency
- increase in SWS duration (rats; CBD dose of 40 mg/kg): not statistically significant
- total percentage of sleep (rats; CBD doses of 10 and 40 mg/kg): significantly increased
- REM sleep (healthy rats): decrease in REM sleep
- wakefulness (healthy rats): increase in wakefulness
